In patent US7897593B2, “HIV integrase inhibitors” (priority 2006, dated 2011):

Tests used:
[1] = molecular target: T1, purified integrase (Human immunodeficiency virus type 1 group M subtype B, UniProt P12497); experiment: HIV-Integrase binding assay (competition with radiolabeled integrase inhibitor); conditions: competition with [3H]-labeled integrase inhibitor; Cheng and Prusoff
T1 construct: Recombinant integrase (0.26 ng) was incubated with the beads
Procedure: HIV-Integrase binding assay. In this assay competitive binding experiments with test compounds and a radiolabeled integrase inhibitor (compound A) are performed against purified integrase. […] Binding reactions were carried out in 96-well white polystyrene assay plates (Corning, #3600). The following was added sequentially to each well: 20 μl of water or 20μl of human serum (Cellgro Cat# 35-060-CL), 5 μl of serially diluted compound (in 50% DMSO/50% integrase SPA buffer), 5 μl of [^3H]-compound I (6,000 cpm/μl in SPA buffer) and 20 μl of bead/DNA/enzyme complex. The plates were shaken for 2 hours and then allowed to sit at room temperature without shaking overnight. The [^3H]-compound I binding was measured using a Topcount scintillation counter. Cheng and Prusoff equations were used to convert the inhibition of compound 1 binding into the corresponding Ki value. Activity equal to A refers to a compound having Ki=0.001 to 0.003 μM while B and C denote compounds having Ki=0.003 to 0.05 μM and Ki≧0.050 μM respectively.

[2] = test system: recombinant NL-Rluc virus; experiment: Inhibition of HIV replication; format: cell-based; conditions: Human immunodeficiency virus 1, read-out: Antiviral Activity, NL-RLuc virus; three serum conditions described, the one tabulated is not stated

| SMILES | Ki [1] | EC50 [2] |
| --- | --- | --- |
| CN(C)C(=O)C(=O)N1CCC2(CC1)NCCn1c2nc(C(=O)NCc2ccc(F)cc2)c(O)c1=O [Example 34, 1-(2-(Dimethylamino)-2-oxoacetyl)-N-(4-fluorobenzyl)-3′-hydroxy-4′-oxo-4′,6′,7′,8′-tetrahydrospiro[piperidine-4,9′-pyrazino[1,2-a]pyrimidine]-2′-carboxamide] | 3 to 50 nM | 10 to 100 nM |
| CN(C)C(=O)N1CCC2(CC1)OCCCn1c2nc(C(=O)NCc2ccc(F)cc2)c(O)c1=O [Example 59] | 1 to 3 nM | 1 to 10 nM |
| Cc1nnc(C(=O)N2CCC3(C2)OCCn2c3nc(C(=O)NCc3ccc(F)cc3-n3ncnc3C)c(O)c2=O)o1 (centres unmarked) [Example 46, N-(4-Fluoro-2-(5-methyl-1H-1,2,4-triazol-1-yl)benzyl)-3-hydroxy-1′-(5-methyl-1,3,4-oxadiazole-2-carbonyl)-4-oxo-6,7-dihydro-4H-spiro[pyrimido[2,1-c][1,4]oxazine-9,3′-pyrrolidine]-2-carboxamide] | 3 to 50 nM | > 100 nM |
| CN(C)S(=O)(=O)N1CCC2(CC1)COCCn1c2nc(C(=O)NCc2ccc(F)cc2)c(O)c1=O [Example 68] | 3 to 50 nM | 10 to 100 nM |
| CC(=O)N1CCC2(CC1)COCCn1c2nc(C(=O)NCc2ccc(F)cc2-n2ncnc2C)c(O)c1=O [Example 69] | 3 to 50 nM | > 100 nM |
| CN(C)S(=O)(=O)N1CCC2(CC1)OCCCn1c2nc(C(=O)NCc2ccc(F)cc2)c(O)c1=O [Example 61] | 1 to 3 nM | 1 to 10 nM |
| Cc1ncnn1-c1cc(F)ccc1CNC(=O)c1nc2n(c(=O)c1O)CCCOC21CCN(C(=O)C(=O)N(C)C)CC1 [Example 74, 1-(2-(Dimethylamino)-2-oxoacetyl)-N-(4-fluoro-2-(5-methyl-1H-1,2,4-triazol-1-yl)benzyl)-3′-hydroxy-4′-oxo-4′,6′,7′,8′-tetrahydrospiro[piperidine-4,10′-pyrimido[2,1-c][1,4]oxazepine]-2′-carboxamide] | 3 to 50 nM | > 100 nM |
| CCOC(=O)C(=O)N1CCC2(C1)OCCn1c2nc(C(=O)NCc2ccc(F)cc2-n2ncnc2C)c(O)c1=O (centres unmarked) [Example 47, Ethyl 2-(2-(4-fluoro-2-(5-methyl-1H-1,2,4-triazol-1-yl)benzylcarbamoyl)-3-hydroxy-4-oxo-6,7-dihydro-4H-spiro[pyrimido[2,1-c][1,4]oxazine-9,3′-pyrrolidine]-1′-yl)-2-oxoacetate] | 3 to 50 nM | > 100 nM |
| Cc1ncnn1-c1cc(F)ccc1CNC(=O)c1nc2n(c(=O)c1O)CCCOC21CCN(S(=O)(=O)N(C)C)CC1 [Example 66] | 3 to 50 nM | 1 to 10 nM |
| O=C(NCc1ccc(F)cc1N1CCCCS1(=O)=O)c1nc2n(c(=O)c1O)CCCOC21CCN(C(=O)OCc2ccccc2)CC1 [Example 51] | 3 to 50 nM | 1 to 10 nM |
